Laboratory results from publication PMC11404765 (Journal of Clinical Oncology, 2024).
Marks after values point to notes of the source that are not given here.

Legend:
[1] = PK profiles in serum; format: in vivo, human
[2] = tested on: advanced BTC; conditions: phase III, added to chemotherapy, first-line advanced BTC; cited from earlier work
[3] = tested on: BTC harboring FGFR2 fusions or rearrangements; conditions: phase II trials; cited from earlier work
[4] = tested on: IDH1-mutant BTC; conditions: phase III; cited from earlier work

Molecule: CC[C@@]1(O)C(=O)OCc2c1cc1n(c2=O)Cc2c-1nc1cc(F)c(C)c3c1c2[C@@H](NC(=O)CO)CC3 [MAAA-1181a]
- t1/2, mean (SD) ([1]; n = 6): 4.76 (1.02) days
- Tmax, median (range) ([1]; n = 7): 3.88 (1.65-4.07) hours
- Cmax, mean (SD) ([1]; payload after T-DXd 5.4 mg/kg, n = 7): 11.5 (4.65)^a ng/mL

Molecule: durvalumab
- Overall survival (OS) [2]: improved overall survival

Molecule: CCN1C(=O)N(c2c(F)c(OC)cc(OC)c2F)Cc2cnc3[nH]c(CN4CCOCC4)cc3c21 [pemigatinib]
- ORR [3]: 35.5%

Molecule: CCN1CCN(c2ccc(Nc3cc(N(C)C(=O)Nc4c(Cl)c(OC)cc(OC)c4Cl)ncn3)cc2)CC1 [infigratinib]
- ORR [3]: 18.8%

Molecule: pembrolizumab
- Overall survival (OS) [2]: improved overall survival

Molecule: N#Cc1ccnc(N2C(=O)CC[C@H]2C(=O)N(c2cncc(F)c2)[C@H](C(=O)NC2CC(F)(F)C2)c2ccccc2Cl)c1 [ivosidenib]
- PFS compared with placebo [4]: improved
